From ChEMBL document CHEMBL1201861, “Genomics of Drug Sensitity in Cancer screening data, Wellcome Trust Sanger Institute”

Key:
Assay type in all cases: functional, cell-based
SW48 = test: cells; conditions: Homo sapiens;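 further: growth inhibition of SW48 cells, read out with a cell viability assay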
Description: SANGER: Inhibition of human SW48 cell growth in a cell viability assay.

NCI-H2052 = test: cells; conditions: Homo sapiens;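 further: growth inhibition of NCI-H2052 cells, read out with a cell viability assay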
Description: SANGER: Inhibition of human NCI-H2052 cell growth in a cell viability assay.

IM-9 = test: SANGER: Inhibition of human IM-9 cell growth in a cell viability assay.; conditions: Homo sapiens, IM-9
23132-87 = test: cells; conditions: Homo sapiens
Description: SANGER: Inhibition of human 23132-87 cell growth in a cell viability assay.

HT-1080 = test: cells; conditions: Homo sapiens
Description: SANGER: Inhibition of human HT-1080 cell growth in a cell viability assay.

RPMI 8402 = test: SANGER: Inhibition of human RPMI-8402 cell growth in a cell viability assay.; conditions: Homo sapiens, RPMI 8402
PC-3 = test: cells; conditions: Homo sapiens;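 further: cell viability assay measuring growth inhibition of PC-3 cells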
Description: SANGER: Inhibition of human PC-3 cell growth in a cell viability assay.

T-24 = test: cells; conditions: Homo sapiens;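 further: growth inhibition of T-24 cells, read out with a cell viability assay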
Description: SANGER: Inhibition of human T-24 cell growth in a cell viability assay.

HCC 2998 = test: cells; conditions: Homo sapiens;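 further: growth inhibition of human HCC2998 cells, measured with a cell viability read-out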
Description: SANGER: Inhibition of human HCC2998 cell growth in a cell viability assay.

HCC1806 = test: cells; conditions: Homo sapiens;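 further: growth inhibition of the cancer cell line, determined with a cell viability assay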
Description: SANGER: Inhibition of human HCC1806 cell growth in a cell viability assay.

MDA-MB-415 = test: cells; conditions: Homo sapiens
HT-3 = test: cells; conditions: Homo sapiens;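 further: growth inhibition measured with a cell viability readout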
Description: SANGER: Inhibition of human HT-3 cell growth in a cell viability assay.

KP-N-YN = test: cells; conditions: Homo sapiens;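 further: growth inhibition of KP-N-YN cells, read out with a cell viability assay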
Description: SANGER: Inhibition of human KP-N-YN cell growth in a cell viability assay.

CAL-12T = test: cells; conditions: Homo sapiens;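 further: growth inhibition of human CAL-12T cells, read out with a cell viability assay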
Description: SANGER: Inhibition of human CAL-12T cell growth in a cell viability assay.

KYSE-70 cell line = test: cells; conditions: Homo sapiens;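 further: cell viability assay read-out, with IC50 expressing suppression of KYSE-70 cell growth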
Description: SANGER: Inhibition of human KYSE-70 cell growth in a cell viability assay.

SBC-5 = test: cells; conditions: Homo sapiens;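 further: cell viability assay read-out, IC50 is the concentration that inhibits growth of the cells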
Description: SANGER: Inhibition of human SBC-5 cell growth in a cell viability assay.

G-401 = test: cells; conditions: Homo sapiens
Description: SANGER: Inhibition of human G-401 cell growth in a cell viability assay.

CAL-62 = test: cells; conditions: Homo sapiens;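 further: growth inhibition of CAL-62 cells, read out with a cell viability assay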
Description: SANGER: Inhibition of human CAL-62 cell growth in a cell viability assay.

SiHa = test: cells; conditions: Homo sapiens;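 further: Viability-based readout of growth inhibition in SiHa cells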
Description: SANGER: Inhibition of human SiHa cell growth in a cell viability assay.

EFO-27 = test: cells; conditions: Homo sapiens;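 further: growth inhibition of EFO-27 cells, read out with a cell viability assay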
Description: SANGER: Inhibition of human EFO-27 cell growth in a cell viability assay.

HCC70 = test: cells; conditions: Homo sapiens;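 further: cell viability assay measuring how strongly the compound suppresses proliferation of HCC70 cells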
Description: SANGER: Inhibition of human HCC70 cell growth in a cell viability assay.

MKN-45 = test: cells; conditions: Homo sapiens;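 further: growth inhibition of human MKN-45 cells, measured with a cell viability assay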
Description: SANGER: Inhibition of human MKN45 cell growth in a cell viability assay.

TYK-nu = test: cells; conditions: Homo sapiens;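 further: growth inhibition of human TYK-nu cells, read out by a cell viability assay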
Description: SANGER: Inhibition of human TYK-nu cell growth in a cell viability assay.

SW1417 = test: cells; conditions: Homo sapiens;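 further: growth inhibition of human SW1417 cells, read out with a cell viability assay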
Description: SANGER: Inhibition of human SW1417 cell growth in a cell viability assay.

HT55 = test: cells; conditions: Homo sapiens;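 further: cell viability readout measuring growth inhibition of human HT55 cells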
Description: SANGER: Inhibition of human HT55 cell growth in a cell viability assay.

U-251 = test: cells; conditions: Homo sapiens;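 further: growth inhibition of human U-251 cells, read out through a cell viability assay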
Description: SANGER: Inhibition of human U251 cell growth in a cell viability assay.

NCI-H1623 = test: cells; conditions: Homo sapiens;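 further: cell viability assay used as the read-out for growth inhibition of NCI-H1623 cells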
Description: SANGER: Inhibition of human NCI-H1623 cell growth in a cell viability assay.

AGS = test: cells; conditions: Homo sapiens;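 further: growth inhibition of AGS cells, determined with a cell viability assay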
Description: SANGER: Inhibition of human AGS cell growth in a cell viability assay.

CP50-MEL-B = test: cells; conditions: Homo sapiens;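 further: growth inhibition of the human cell line, measured with a cell viability read-out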
Description: SANGER: Inhibition of human CP50-MEL-B cell growth in a cell viability assay.

RPMI-7951 = test: cells; conditions: Homo sapiens
Description: SANGER: Inhibition of human RPMI-7951 cell growth in a cell viability assay.

MG-63 = test: cells; conditions: Homo sapiens;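 further: growth inhibition of human MG-63 cells, read out with a cell viability assay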
Description: SANGER: Inhibition of human MG-63 cell growth in a cell viability assay.

NCI-H2452 = test: cells; conditions: Homo sapiens;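 further: growth inhibition of NCI-H2452 cells, read out with a cell viability assay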
Description: SANGER: Inhibition of human NCI-H2452 cell growth in a cell viability assay.

FTC-133 = test: cells; conditions: Homo sapiens
NY = test: cells; conditions: Homo sapiens
Description: SANGER: Inhibition of human NY cell growth in a cell viability assay.

ASPC1 = test: cells; conditions: Homo sapiens;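 further: growth inhibition of AsPC-1 cells, read out with a cell viability assay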
Description: SANGER: Inhibition of human AsPC-1 cell growth in a cell viability assay.

RMG-I = test: cells; conditions: Homo sapiens;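 further: growth inhibition of human RMG-I cells, read out with a cell viability assay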
Description: SANGER: Inhibition of human RMG-I cell growth in a cell viability assay.

A 172 = test: cells; conditions: Homo sapiens;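 further: growth inhibition of A172 cells, measured with a cell viability readout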
Description: SANGER: Inhibition of human A172 cell growth in a cell viability assay.

SK-MEL-24 = test: cells; conditions: Homo sapiens;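 further: growth inhibition read out by a cell viability assay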
Description: SANGER: Inhibition of human SK-MEL-24 cell growth in a cell viability assay.

M059J = test: cells; conditions: Homo sapiens;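 further: growth inhibition of M059J cells, read out with a cell viability assay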
Description: SANGER: Inhibition of human M059J cell growth in a cell viability assay.

A-431 = test: cells; conditions: Homo sapiens;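 further: growth inhibition of A-431 cells, determined with a cell viability read-out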
Description: SANGER: Inhibition of human A431 cell growth in a cell viability assay.

SMILES	IC50 (SW48)	IC50 (NCI-H2052)	IC50 (HT-1080)	IC50 (PC-3)	IC50 (T-24)	IC50 (HCC 2998)	IC50 (HCC1806)	IC50 (MDA-MB-415)	IC50 (HT-3)	IC50 (KP-N-YN)	IC50 (CAL-12T)	IC50 (KYSE-70 cell line)	IC50 (SBC-5)	IC50 (G-401)	IC50 (CAL-62)	IC50 (SiHa)	IC50 (EFO-27)	IC50 (HCC70)	IC50 (TYK-nu)	IC50 (SW1417)	other results
CO[C@@H]1[C@H](N(C)C(=O)c2ccccc2)C[C@H]2O[C@]1(C)n1c3ccccc3c3c4c(c5c6ccccc6n2c5c31)C(=O)NC4 [MIDOSTAURIN]	0.267 µM	> 0.512 µM	0.16 µM	> 0.512 µM	–	–	–	–	–	–	–	–	–	–	–	–	–	–	–	–	IC50 (IM-9): > 0.512 µM; IC50 (23132-87): > 0.512 µM; IC50 (RPMI 8402): > 0.512 µM
CC1(C)CCC(c2ccc(Cl)cc2)=C(CN2CCN(c3ccc(C(=O)NS(=O)(=O)c4ccc(N[C@H](CCN5CCOCC5)CSc5ccccc5)c(S(=O)(=O)C(F)(F)F)c4)cc3)CC2)C1 [NAVITOCLAX]	> 2 µM	1.72 µM	> 2 µM	> 2 µM	> 2 µM	1.07 µM	> 2 µM	1.39 µM	> 2 µM	0.236 µM	> 2 µM	> 2 µM	> 2 µM	> 2 µM	> 2 µM	> 2 µM	> 2 µM	> 2 µM	> 2 µM	0.554 µM	IC50 (MKN-45): > 2 µM; IC50 (HT55): > 2 µM; IC50 (U-251): > 2 µM; IC50 (NCI-H1623): > 2 µM; IC50 (AGS): > 2 µM; IC50 (CP50-MEL-B): > 2 µM; IC50 (RPMI-7951): > 2 µM; IC50 (MG-63): > 2 µM; IC50 (NCI-H2452): > 2 µM; IC50 (FTC-133): > 2 µM; IC50 (NY): > 2 µM; IC50 (ASPC1): > 2 µM; IC50 (RMG-I): 0.495 µM; IC50 (A 172): > 2 µM; IC50 (SK-MEL-24): > 2 µM; IC50 (M059J): > 2 µM; IC50 (A-431): > 2 µM
CS(=O)(=O)N1CCN(Cc2cc3nc(-c4cccc5[nH]ncc45)nc(N4CCOCC4)c3s2)CC1 [PICTILISIB]	> 4 µM	> 4 µM	3.09 µM	> 4 µM	> 4 µM	> 4 µM	> 4 µM	1.49 µM	2.49 µM	> 4 µM	> 4 µM	> 4 µM	> 4 µM	1.62 µM	> 4 µM	> 4 µM	> 4 µM	2.87 µM	1.96 µM	> 4 µM	IC50 (HT55): > 4 µM; IC50 (U-251): > 4 µM; IC50 (NCI-H1623): 0.304 µM; IC50 (AGS): 3.62 µM; IC50 (CP50-MEL-B): > 4 µM; IC50 (RPMI-7951): > 4 µM; IC50 (MG-63): 0.541 µM; IC50 (NCI-H2452): > 4 µM; IC50 (FTC-133): > 4 µM; IC50 (NY): > 4 µM; IC50 (ASPC1): > 4 µM; IC50 (RMG-I): > 4 µM; IC50 (SK-MEL-24): > 4 µM; IC50 (M059J): > 4 µM; IC50 (A-431): 2.27 µM
CN(C)CCOc1ccc(-c2nc(-c3ccncc3)c(-c3ccc4c(c3)CC/C4=N\O)[nH]2)cc1 [SB590885]	> 5 µM	> 5 µM	> 5 µM	> 5 µM	> 5 µM	> 5 µM	> 5 µM	> 5 µM	> 5 µM	> 5 µM	> 5 µM	> 5 µM	> 5 µM	> 5 µM	> 5 µM	> 5 µM	> 5 µM	> 5 µM	1.8 µM	> 5 µM	IC50 (HT55): > 5 µM; IC50 (U-251): > 5 µM; IC50 (NCI-H1623): > 5 µM; IC50 (AGS): > 5 µM; IC50 (CP50-MEL-B): 1.73 µM; IC50 (RPMI-7951): > 5 µM; IC50 (MG-63): > 5 µM; IC50 (NCI-H2452): > 5 µM; IC50 (FTC-133): > 5 µM; IC50 (NY): > 5 µM; IC50 (ASPC1): > 5 µM; IC50 (RMG-I): > 5 µM; IC50 (M059J): > 5 µM; IC50 (A-431): > 5 µM
